For one substance, Kd results are on record in patent US6642246B1 (priority 1999, dated 2003).

This experiment concerns the target α7 nAChR subtype (Rattus norvegicus, UniProt Q05941). The format is binding.

Chain of α7 nAChR subtype (Q05941 23-502 limits assumed): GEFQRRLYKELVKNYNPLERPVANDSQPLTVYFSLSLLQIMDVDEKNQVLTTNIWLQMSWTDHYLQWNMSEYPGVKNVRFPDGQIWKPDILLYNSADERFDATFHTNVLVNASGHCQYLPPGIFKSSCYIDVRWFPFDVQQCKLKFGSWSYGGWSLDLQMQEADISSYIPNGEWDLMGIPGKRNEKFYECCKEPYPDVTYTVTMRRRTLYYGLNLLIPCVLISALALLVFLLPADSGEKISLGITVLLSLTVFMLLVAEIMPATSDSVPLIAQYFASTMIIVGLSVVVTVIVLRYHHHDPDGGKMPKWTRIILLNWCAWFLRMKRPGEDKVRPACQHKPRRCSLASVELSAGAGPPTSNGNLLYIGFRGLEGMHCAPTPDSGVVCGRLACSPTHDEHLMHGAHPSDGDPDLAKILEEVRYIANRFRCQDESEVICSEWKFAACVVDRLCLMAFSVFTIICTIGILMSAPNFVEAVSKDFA

One may read the Kd as a measure of binding affinity in units of concentration. In the case of ^125I-α-Bungarotoxin [^125I-α-BTX], the Kd is 1.67 nM.
